{"source": "patent US20100261682A1", "about": "“Method and Means for the Treatment of Cachexia” (Bioneris AB, priority 2007, published 2010)", "key": {"[1]": {"tested_on": "MAC16 tumour", "assay": "Tumour volume in MAC16 tumour-bearing mice treated with lipid soluble alpha-trinositol (Example 5)", "assay_type": "in vivo, NMRI mice", "settings": "6 mg/kg and 8 mg/kg groups versus control", "source_text": "(§1) Animals. Pure strain male NMRI mice (average body weight 25 g) were transplanted with fragments of the MAC16 tumour subcutaneously into the flank by means of a trochar, selected from donor animals with established weight loss (Bibby M C et al., Characterization of transplantable adenocarcinoma in the mouse colon producing cachexia in the recipient animals. J Natl Cancer Inst 78 (1987) 539-546). Transplanted animals were given a rat and mouse breeding diet (Special Diet Services, Witham, UK) and water at lib. Weight loss was evident 10 to 12 days after tumour implantation. Just prior to the development of weight loss […] were randomized into three groups of six animals each.\n(§2) Administration of alpha-trinositol. A first experiment was started when the animals had lost about 5% of body weight. Aliquots of lipid soluble alpha-trinositol stock solution corresponding to doses of 6 mg/kg body weight and 8 mg/kg body weight for a 25 g animal were administered subcutaneously three times per day at 8.00, 12.00 and 16.00 hrs. The third group (control) was given an intravenous injection of 10 μl of PBS. Body weight (FIG. 26), tumour volume, and food (FIG. 27) and water (FIG. 28) intake were determined daily (for 5 days) after the last injection. Day 0 is the day of transplant and day 1 is the start of the experiment. The experiment was terminated on day 5 due to loss of controls."}, "[2]": {"tested_on": "MAC16 tumour-bearing mice", "assay": "Body weight, food and water intake in MAC16 tumour-bearing mice treated with lipid soluble alpha-trinositol (Example 5)", "assay_type": "in vivo, NMRI mice", "settings": "for weight loss compared to the control group: 5 days", "source_text": "Materials. Lipid soluble alpha trinositol (1-D-tri-O-hexanoyl-myo-inositol 1,2,6-triphosphate) was formed by further esterification of 1-D-Myo-inositol 1,2,6-triphosphate.\nas §1, §2"}}}
{"smiles": "CCCCCC(=O)O[C@@H]1[C@@H](OC(=O)CCCCC)[C@@H](OP(=O)(O)O)[C@@H](OP(=O)(O)O)[C@H](OP(=O)(O)O)[C@H]1OC(=O)CCCCC", "note": "[lipid soluble alpha trinositol, 1-D-tri-O-hexanoyl-myo-inositol 1,2,6-triphosphate]", "values": [{"measurement": "increase in tumour volume", "setting": "[1]", "value": "slightly higher in the control group"}, {"measurement": "weight loss compared to the control group", "setting": "[2]; 6 mg/kg s.c. three times per day", "value": "significantly lower weight loss"}, {"measurement": "weight loss compared to the control group", "setting": "[2]; 8 mg/kg s.c. three times per day", "value": "significantly lower weight loss"}, {"measurement": "average weight loss in 5 days", "setting": "[2]; highest concentration (8 mg/kg), control about 6 g", "value": "about 3 g"}]}
